Experimental data from patent publication US9505780B2, “Thienopyranones as kinase and epigenetic inhibitors” (SignalRx Pharmaceuticals, Inc., priority 2014, dated 2016).

Key:
BRD4-1 = BRD4-1 (Homo sapiens (Human), UniProt O60885); assay: BRD4 region 1 (BRD4-1) inhibition; format: biochemical
BRD4-2 = BRD4-2 (Homo sapiens (Human), UniProt O60885); assay: BRD4 region 2 (BRD4-2) inhibition; format: biochemical
PI3Kβ = PI3Kβ (Homo sapiens (Human), UniProt P42338); assay: PI3K beta isoform inhibition; format: biochemical
PI3Kβ, sequence (P42338 whole entry, canonical isoform): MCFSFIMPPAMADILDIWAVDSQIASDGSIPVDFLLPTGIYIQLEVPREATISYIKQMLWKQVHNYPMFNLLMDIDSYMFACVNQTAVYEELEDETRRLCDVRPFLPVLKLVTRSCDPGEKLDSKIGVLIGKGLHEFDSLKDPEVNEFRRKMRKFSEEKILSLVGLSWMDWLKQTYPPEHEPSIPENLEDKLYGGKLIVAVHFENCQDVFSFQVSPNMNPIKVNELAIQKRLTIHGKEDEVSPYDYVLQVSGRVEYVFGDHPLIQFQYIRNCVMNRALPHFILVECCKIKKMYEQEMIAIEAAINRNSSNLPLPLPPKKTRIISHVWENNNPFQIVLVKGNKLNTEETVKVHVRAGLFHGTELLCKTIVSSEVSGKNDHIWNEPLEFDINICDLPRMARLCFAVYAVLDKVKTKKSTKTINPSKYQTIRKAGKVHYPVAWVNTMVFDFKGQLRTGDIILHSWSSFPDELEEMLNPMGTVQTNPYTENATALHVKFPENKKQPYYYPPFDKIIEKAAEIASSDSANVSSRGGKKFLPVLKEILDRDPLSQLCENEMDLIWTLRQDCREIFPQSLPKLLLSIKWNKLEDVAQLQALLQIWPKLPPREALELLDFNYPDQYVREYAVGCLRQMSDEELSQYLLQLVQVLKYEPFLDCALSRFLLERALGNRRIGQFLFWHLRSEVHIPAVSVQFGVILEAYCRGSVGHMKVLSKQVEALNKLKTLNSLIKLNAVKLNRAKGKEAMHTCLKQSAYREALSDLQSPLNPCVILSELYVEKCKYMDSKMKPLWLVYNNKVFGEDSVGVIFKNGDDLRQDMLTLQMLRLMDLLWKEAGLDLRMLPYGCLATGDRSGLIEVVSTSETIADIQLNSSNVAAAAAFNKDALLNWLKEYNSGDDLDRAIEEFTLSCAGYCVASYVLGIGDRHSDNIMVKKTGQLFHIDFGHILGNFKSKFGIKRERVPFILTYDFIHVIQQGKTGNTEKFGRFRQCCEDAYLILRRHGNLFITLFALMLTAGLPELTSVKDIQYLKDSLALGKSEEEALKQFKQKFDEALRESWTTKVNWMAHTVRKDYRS
PI3Kβ, sequence (P27986 whole entry partner, canonical isoform): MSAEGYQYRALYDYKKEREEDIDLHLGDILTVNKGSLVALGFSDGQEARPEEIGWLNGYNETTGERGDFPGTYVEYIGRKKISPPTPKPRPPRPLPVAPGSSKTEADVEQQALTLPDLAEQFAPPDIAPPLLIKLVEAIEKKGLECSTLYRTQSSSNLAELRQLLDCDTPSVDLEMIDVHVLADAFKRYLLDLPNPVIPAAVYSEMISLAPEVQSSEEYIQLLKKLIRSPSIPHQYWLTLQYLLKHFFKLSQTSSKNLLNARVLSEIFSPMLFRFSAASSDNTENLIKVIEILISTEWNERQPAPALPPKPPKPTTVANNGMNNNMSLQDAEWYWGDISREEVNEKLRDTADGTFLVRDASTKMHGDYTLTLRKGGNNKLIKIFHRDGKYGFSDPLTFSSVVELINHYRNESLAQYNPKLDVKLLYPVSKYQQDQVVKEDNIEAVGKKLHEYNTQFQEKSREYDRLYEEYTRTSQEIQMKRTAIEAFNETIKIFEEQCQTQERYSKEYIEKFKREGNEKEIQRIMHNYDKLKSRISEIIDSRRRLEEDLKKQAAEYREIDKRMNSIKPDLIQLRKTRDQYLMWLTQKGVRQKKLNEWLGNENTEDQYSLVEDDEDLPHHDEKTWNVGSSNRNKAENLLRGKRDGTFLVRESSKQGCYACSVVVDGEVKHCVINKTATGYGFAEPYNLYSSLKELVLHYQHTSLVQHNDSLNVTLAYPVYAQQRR

PI3Kδ = PI3Kδ (Homo sapiens (Human), UniProt O00329); assay: PI3K delta isoform inhibition; format: biochemical
PI3Kδ, sequence (O00329 whole entry, canonical isoform): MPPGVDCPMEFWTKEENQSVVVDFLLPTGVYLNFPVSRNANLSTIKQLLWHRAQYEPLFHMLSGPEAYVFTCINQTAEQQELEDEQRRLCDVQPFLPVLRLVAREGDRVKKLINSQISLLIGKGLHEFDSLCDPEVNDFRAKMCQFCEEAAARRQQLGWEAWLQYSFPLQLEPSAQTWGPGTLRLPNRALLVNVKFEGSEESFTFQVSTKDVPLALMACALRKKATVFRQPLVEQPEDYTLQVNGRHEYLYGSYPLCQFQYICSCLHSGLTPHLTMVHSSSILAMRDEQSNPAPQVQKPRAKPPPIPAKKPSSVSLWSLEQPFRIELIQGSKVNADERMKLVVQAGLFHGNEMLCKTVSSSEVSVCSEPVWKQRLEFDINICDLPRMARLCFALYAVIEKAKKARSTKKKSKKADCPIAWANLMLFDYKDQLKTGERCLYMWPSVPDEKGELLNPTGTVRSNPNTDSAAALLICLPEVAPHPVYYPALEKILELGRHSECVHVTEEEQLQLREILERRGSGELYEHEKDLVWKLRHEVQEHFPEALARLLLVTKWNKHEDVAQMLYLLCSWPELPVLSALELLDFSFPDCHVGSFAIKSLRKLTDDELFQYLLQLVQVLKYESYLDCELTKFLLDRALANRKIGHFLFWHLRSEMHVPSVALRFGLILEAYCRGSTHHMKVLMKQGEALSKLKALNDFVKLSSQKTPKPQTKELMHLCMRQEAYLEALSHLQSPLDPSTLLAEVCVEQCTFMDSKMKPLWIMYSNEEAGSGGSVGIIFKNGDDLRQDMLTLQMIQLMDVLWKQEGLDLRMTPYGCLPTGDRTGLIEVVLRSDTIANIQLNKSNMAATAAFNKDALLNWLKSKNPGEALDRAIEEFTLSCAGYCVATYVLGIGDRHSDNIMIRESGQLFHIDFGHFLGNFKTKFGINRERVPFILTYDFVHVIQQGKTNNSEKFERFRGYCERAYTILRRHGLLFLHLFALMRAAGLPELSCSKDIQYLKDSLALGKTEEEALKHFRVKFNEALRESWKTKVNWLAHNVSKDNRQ
PI3Kδ, sequence (P27986 whole entry partner, canonical isoform): as the sequence (P27986 whole entry partner, canonical isoform) above
Description: Inhibitory activity can be determined routinely using known methods and also front commercial vendors offering this service for kinases and bromodomain proteins. […] In vivo, PI3K inhibition can be determined from target tissue biopsies by standard tissue processing to disrupt cells and then performing Western Blot analysis to determine the presence or absence of pAKT (substrate of PI3K) relative to a control sample. The activity of a compound of the invention as an inhibitor of a bromodomain-containing protein, such as a BET protein, such as BRD2, BRD3, BRD4, and/or BRDT, or an isoform or mutant thereof may be determined in vitro, in vivo, or in a cell line. In vitro assays include assays that determine inhibition of bromodomain-containing proteins. Alternatively, inhibitor binding may be determined by running a competition experiment where a provided compound is incubated with a bromodomain-containing protein, such as a BET protein bound to known ligands, labeled or unlabeled. For example, bromodomain inhibition can be determined in vitro using Alpha Screen Technology (http://www.reactionbiology.com/webapps/site/NewsPDFs/Bromodomain%20Assay%20Platform%20for%20Drug%/20Screening%20and%20Discovery.pdf). In vivo bromodomain inhibition can be determined indirectly by evaluating the amount of protect present of proteins whose genes' transcription is influenced or controlled by the bromodomain protein, for example, the MYCN protein transcription is controlled by BRD4 (J. E. Delmore et al., Cell 2011, 146, 904-917; A. Puissant, Cancer Discov. 2013, 3, 308-323). Bromodomain inhibition may also be predicted by in silico modeling as described below in the Examples.
(§1) Several TP Scaffold compounds (structures shown in FIG. 2 and Table 3) were tested for inhibition activity against isoforms of PI3K (alpha, beta, gamma, and delta isoforms) and the bromodomain protein BRD4 at regions 1 (BRD4-1) and 2 (BRD4-2).

PI3Kγ = PI3Kγ (Homo sapiens (Human), UniProt P48736); assay: PI3K gamma isoform inhibition; format: biochemical
PI3Kγ, sequence (P48736 whole entry, canonical isoform): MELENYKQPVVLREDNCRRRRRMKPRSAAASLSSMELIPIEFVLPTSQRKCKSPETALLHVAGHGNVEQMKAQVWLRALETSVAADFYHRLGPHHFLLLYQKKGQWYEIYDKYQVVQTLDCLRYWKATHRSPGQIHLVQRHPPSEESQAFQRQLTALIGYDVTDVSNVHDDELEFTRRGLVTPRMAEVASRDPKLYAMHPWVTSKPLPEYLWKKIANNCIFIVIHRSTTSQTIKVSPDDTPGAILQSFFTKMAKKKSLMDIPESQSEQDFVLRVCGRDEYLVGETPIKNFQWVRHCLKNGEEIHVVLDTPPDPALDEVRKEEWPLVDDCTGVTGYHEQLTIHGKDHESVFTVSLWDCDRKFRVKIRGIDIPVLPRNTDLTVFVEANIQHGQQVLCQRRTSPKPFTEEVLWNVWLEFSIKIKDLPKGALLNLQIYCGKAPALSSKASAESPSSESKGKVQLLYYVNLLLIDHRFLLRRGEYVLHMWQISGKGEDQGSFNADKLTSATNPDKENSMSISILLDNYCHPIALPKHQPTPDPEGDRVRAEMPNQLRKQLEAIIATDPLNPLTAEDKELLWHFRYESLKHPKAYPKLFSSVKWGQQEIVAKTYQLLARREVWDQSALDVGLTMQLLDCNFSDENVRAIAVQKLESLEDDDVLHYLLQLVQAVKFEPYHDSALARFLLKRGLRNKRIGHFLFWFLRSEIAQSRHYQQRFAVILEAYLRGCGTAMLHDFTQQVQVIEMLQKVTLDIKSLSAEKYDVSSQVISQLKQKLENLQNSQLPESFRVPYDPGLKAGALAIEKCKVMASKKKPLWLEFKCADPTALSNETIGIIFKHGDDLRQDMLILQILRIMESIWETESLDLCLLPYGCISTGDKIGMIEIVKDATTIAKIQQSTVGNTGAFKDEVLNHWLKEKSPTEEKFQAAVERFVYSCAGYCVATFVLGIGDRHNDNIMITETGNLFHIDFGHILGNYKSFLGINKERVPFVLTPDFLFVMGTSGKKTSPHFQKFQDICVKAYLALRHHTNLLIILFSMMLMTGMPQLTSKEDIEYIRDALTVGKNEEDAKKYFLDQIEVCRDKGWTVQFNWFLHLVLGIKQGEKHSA

BRD4 = BRD4 (Homo sapiens, UniProt O60885); assay: BRD4 inhibition assay (region not distinguished); format: biochemical; details: BRD4 regions 1 and 2
SKNBE (2) cells = assay: Western blot of p-AKT and N-MYC in SKNBE(2) cells; format: cell-based, human; details: 24 hrs treatment, IGF stimulated
Method: Cells were stimulated with 50 ng/ml IGF for 30 min and used for lysate preparation. Proteins were quantitated by the BCA protein assay (Pierce). Equal amounts of protein were resolved by polyacrylamide gels, transferred to nitrocellulose membrane and probed by Western blot with the following primary antibodies: p-AKT(Ser473), API (Cell Signaling Technologies), N-MYC, CyclinD1 and β-actin (Santa Cruz Biotechnology).

[1] = tested on: MYCN amplified SKNBE(2) cells; assay: Brd4 chromatin precipitation, quantitative PCR of MYCN promoter region; format: cell-based, human; details: 24 hours exposure
Method: MYCN amplified SKNBE(2) cells were exposed to inhibitors for 24 hours then chromatin was precipitated with Brd4 (rabbit polyclonal antibody) along with rabbit IgG as a negative control (IgG). Precipitated chromatin was analyzed for the MYCN gene (2 sites within the MYCN promoter region) by quantitative PCR and enrichment is shown as the percentage of total input DNA (FIG. 4). The negative control region primers amplify within a gene desert region approximately 1 Mb away from MYCN (MYC-N NR). Error bars represent ±SEM of triplicate data. P<0.05 as compared to positive control (paired t-test). Positive control: No inhibitor; IP with BRD4 antibody, Negative Control: No inhibitor, IP with rabbit IgG.

Panc02 = assay: Orthotopic pancreatic model of spontaneous metastasis; format: in vivo, WT mice; details: 50 mg/kg, three times a week
Method: Panc02 (1×10^6) tumor cells were injected into the pancreas of WT mice (n=18). After 20 days, mice were randomized into two groups. One group was treated with DMSO (control) and the other group was treated with 50 mg/kg of SF2523, three tunes a week. Tumors were removed 35 days after tumor implantation. Values are mean±SEM (n=8 in each gp; P<0.01; pair wise two-sided Student's t test). […] Values are mean±SEM (n=7; P<0.01; pair wise two-sided. Student's t test). The data are representative of three independent experiments performed.

IMR32 cell line = assay: Real-time PCR of N-myc and Cyclin D1 mRNA; format: cell-based; details: 5 μM, 24 hrs
Method: Cells were stimulated with 50 ng/ml IGF and used for RNA Isolation after 24 hrs of treatment with various inhibitors. The results for N-Myc are shown in FIG. 7A and for Cyclin D1 in FIG. 7B.
The experiment of Example 7 was repeated in the IMR32 cell line (MYCN amplified neuroblastoma cancer cell line).

B16 melanoma cells = assay: Mouse model of melanoma metastasis, B16 F10 luciferase cells by tail vein; format: in vivo, WT mice; details: 50 mg/kg every other day, 15 days
Description: The luciferase signal was monitored every third day by rejecting luciferin, until the lungs were harvested on day 15 (n=5). […] Lungs extracted from these animals are shown below the luciferase imaged pictures supporting the repression of tumor growth in Cmpd 28-treated mice.

PC3 = assay: Cellular PI3K inhibitory activity, pAKT Ser473 ELISA; format: cell-based; details: Homo sapiens, PC-3; IGF-1 stimulated, pAKT serine 473
Method: Biological testing of compounds of Formula I. Representative compounds of the invention were tested for cellular PI3K inhibitory activity (as measured by the most robust marker of pathway activity pAKT) in a prostate cancer cell line (PC3), which is summarized in Table 3. […] After this time period the cells were serum starved for 5 hours followed by application of the test compound. Test compound was added as a DMSO (dimethyl sulfoxide) solution such that the final DMSO concentration in the cell media was less than or equal to 0.2% by volume. After 30 minutes of exposure the growth factor stimulant, human IGF-1 (Pepro Tech, Inc., Rocky Hill, N.J., Cat. #100-11), was added in each well. After 30 minutes of IGF-1 exposure, cells were removed the media and cell lysates were prepared using RIPA Lysis buffer (Upstate, Lake Placid, N.Y., Cat. #20-188), keeping on ice. The pAKT serine 473 level was measured in duplicate samples of the cell lysates using commercially available assays such as the Pathscan® Sandwich ELISA kit for Ser473 pAKT (Cell Signaling, Danvers, Mass. Cat. #7160). A SpectraMax Plus spectrophotometric plate reader (Molecular Devices, Sunnydale, Calif.) was used to measure the optical density signal for pAKT at 450 nm (OD450 nm). The pAKT OD450 nm readings were normalized by total protein amount in the cell lysates determined by standard methods.

NB9464 [2] = assay: NB9464 neuroblastoma tumor growth in nude mice; details: 50 mg/kg, 3 days a week for 1.5 weeks, intra-peritoneal
Description: MYCN-overexpressing murine neuroblastoma cells (NB9464) were transplanted into nude mice, grown lot 24 days and randomized into two groups.

PI3Kα = PI3Kα (Homo sapiens (Human), UniProt P42336); assay: PI3K alpha isoform inhibition; format: biochemical
PI3Kα, sequence (P42336 whole entry, canonical isoform): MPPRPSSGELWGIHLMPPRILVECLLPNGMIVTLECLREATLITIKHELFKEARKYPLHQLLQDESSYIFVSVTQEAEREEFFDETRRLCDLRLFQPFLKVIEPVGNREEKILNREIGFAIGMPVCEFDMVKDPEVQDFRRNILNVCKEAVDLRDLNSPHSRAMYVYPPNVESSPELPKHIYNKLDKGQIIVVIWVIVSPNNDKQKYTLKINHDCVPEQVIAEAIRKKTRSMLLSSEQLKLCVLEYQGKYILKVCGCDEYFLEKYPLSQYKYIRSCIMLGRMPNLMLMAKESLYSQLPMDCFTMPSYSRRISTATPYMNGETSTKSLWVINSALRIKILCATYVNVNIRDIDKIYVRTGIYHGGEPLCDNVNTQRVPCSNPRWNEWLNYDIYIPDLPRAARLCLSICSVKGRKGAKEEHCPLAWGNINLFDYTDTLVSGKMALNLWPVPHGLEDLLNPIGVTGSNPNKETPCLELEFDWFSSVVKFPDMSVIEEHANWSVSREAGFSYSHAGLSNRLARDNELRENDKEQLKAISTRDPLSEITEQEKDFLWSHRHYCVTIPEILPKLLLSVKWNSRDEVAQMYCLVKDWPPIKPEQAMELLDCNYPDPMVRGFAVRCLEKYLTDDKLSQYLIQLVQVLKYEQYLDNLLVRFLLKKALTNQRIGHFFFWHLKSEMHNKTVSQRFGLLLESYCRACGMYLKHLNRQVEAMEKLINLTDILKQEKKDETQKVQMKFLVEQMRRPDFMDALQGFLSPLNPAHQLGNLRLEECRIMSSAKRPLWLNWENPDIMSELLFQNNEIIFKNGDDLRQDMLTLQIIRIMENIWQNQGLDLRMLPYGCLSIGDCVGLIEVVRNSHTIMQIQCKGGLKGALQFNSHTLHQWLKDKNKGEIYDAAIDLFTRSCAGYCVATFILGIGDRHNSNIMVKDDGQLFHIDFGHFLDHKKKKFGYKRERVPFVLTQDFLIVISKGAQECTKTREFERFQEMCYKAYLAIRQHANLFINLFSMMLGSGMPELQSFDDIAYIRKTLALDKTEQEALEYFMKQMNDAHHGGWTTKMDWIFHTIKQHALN
PI3Kα, sequence (P27986 whole entry partner, canonical isoform): as the sequence (P27986 whole entry partner, canonical isoform) above

SKNBE(2) = assay: Cytotoxicity / proliferation study, alone and in combination; format: cell-based, human
NB9464 [3] = assay: as above; format: cell-based, murine
[4] = tested on: MYCN-dependent MB patient derived xenograft (PDX) cell line; assay: as above; format: cell-based
PI3K = PI3K inhibition (isoform not distinguished); format: biochemical
Method: as §1
All thienopyranone-based compounds tested inhibited either PI3K or BRD4 or both PI3K and BRD4. […] JQ1+, a known bromodomain inhibitor, was used as reference compound.

`O=c1cc(N2CCOCC2)oc2c(-c3ccc4c(c3)OCCO4)csc12` [Cmpd 28] was tested, and the IC50 (BRD4-1) was 241 nM, the IC50 (BRD4-2) was 1550 nM and the IC50 (PI3Kβ) was 214 nM. The IC50 (PI3Kδ) was 960 nM, the IC50 (PI3Kγ) was 158 nM and the “BRD4 inhibition” value (BRD4) was “showed activity”. For the same compound, the “MYCN protein quantity, Western blot” value (SKNBE (2) cells) was “decreased”, the “pAKT, Western blot” value (SKNBE (2) cells) was “decreased” and the “MYCN expression (Brd4 ChIP, MYCN promoter)” value [1] was “significantly repressed MYCN expression”. For the same compound, the spontaneous metastasis (Panc02) was “blocks spontaneous metastasis”, the “Cyclin D1 mRNA expression” value (IMR32 cell line) was “reducing mRNA expression” and the “MYCN mRNA expression” value (IMR32 cell line) was “inhibits MYCN expression”. The “luciferase bioimaging of cancer cells” value (B16 melanoma cells) was “little evidence of the presence of cancer cells”, the “reduction in metastatic nodules” value (B16 melanoma cells) was 60% and the IC50 (PC3) was 161 to 440 nM. For the same compound, the “tolerability / body weight” value (NB9464 [2]) was “well tolerated (no body weight loss” and the “tumor growth compared to vehicle” value (NB9464 [2]) was “significantly blocked tumor growth”.

Work on `Cc1sc2c(c1C)C(c1ccc(Cl)cc1)=N[C@@H](CC(=O)OC(C)(C)C)c1nnc(C)n1-2` [JQ-1] yielded an IC50 (PI3Kα) of over 50000 nM, an IC50 (PI3Kδ) of over 50000 nM and an IC50 (PI3Kγ) of over 50000 nM. For the same compound, the IC50 (SKNBE(2)) was 1900 nM, the IC50 (NB9464 [3]) was 1600 nM and the IC50 [4] was 2200 nM. For the same compound, the “PI3K inhibition” value (PI3K) was “does not inhibit PI3K”, the “MYCN protein quantity, Western blot” value (SKNBE (2) cells) was “inhibited only MYCN quantities” and the “MYCN expression (Brd4 ChIP, MYCN promoter)” value [1] was “significantly repressed MYCN expression”.
